Data on 17 compounds can be found in US20130109682A1, “CYCLIC ETHER COMPOUNDS USEFUL AS KINASE INHIBITORS” (NOVARTIS AG, priority 2010, published 2013).

Read-outs that look alike come from different tables or passages of the source. Where only a bound is given, the exact number is not on record here.

Assay [1] concerns the target PIM2 (Homo sapiens, UniProt Q9P1W9). The assay can be described thus: Pim 2 AlphaScreen assay (high ATP). The assay is classed as biochemical. The following applies: read-out: Pim2 IC50. The essentials:
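IC50 values rest on detection of phosphorylated Bad peptide: after a ~2 h kinase reaction, an EDTA stop buffer containing anti-phospho Ser/Thr antibody, Protein A and streptavidin AlphaScreen beads was added and read after overnight dark incubation. ATP was high (11-125× Km), with 2.5% DMSO in pH 7.5 Hepes buffer containing MgCl2, BSA, Tween-20 and DTT.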
For orientation: Alpha assays give light when donor and acceptor beads are brought close together.

Assay [2] concerns the target KDR kinase (Homo sapiens, UniProt P35968). The assay can be described thus: KDR kinase inhibition assay (LanthaScreen TR-FRET). The assay is classed as biochemical. As to the method: KDR Kinase Inhibition Assay
(§1) LanthaScreen™ is the detection of Time-Resolved Fluorescence Resonance Energy Transfer (TR-FRET) using lanthanide chelates to measure interactions between various binding partners. The application of TR-FRET to assay kinase activity was first described by Mathis (1995). A TR-FRET assay was used to measure KDR kinase inhibitory activity. The assay panel was run on a Biomek FX liquid handling workstations. To the assay plates containing 50 nL compound or control solutions, 4.5 μL of buffer A (50 mM TRIS-HCl pH 7.4, 2 mM DTT, 0.02% Tween 20, 0.02 mM Na3VO4, H2O nanpure) including a generic concentration of ATP (2 μM f.c.) was added per well, followed by 4.5 μL of buffer B (4 uM ATP in Buffer A) including a generic concentration of polyEAY (50 nM f.c.), KDR kinase, and divalent cations. Final concentration of kinase and cations were: [KDR kinase]=0.38 nM, [Mg]=10 mM, [Ca]=1 mM. After 1 hour of incubation the kinase reactions were stopped by the addition of 4.5 μL of stop solution D (50 mM EDTA, 20 mM TRIS-HCl pH 7.4, 0.04% NP-40) immediately followed by 4.5 μL of buffer A (50 mM TRIS-HCl pH 7.4, 2 mM DTT, 0.02% Tween 20, 0.02 mM Na3VO4, H2O nanpure) including the Tb-labeled P-20 antibody to give a total detection volume of 18 μL. After an incubation time of 45 min in the dark, the plates were transferred into the Pherastar fluorescence reader for counting. The effect of compound on the enzymatic activity was obtained from the linear progress curves and determined from one reading (end point measurement).
A general note: TR-FRET usually uses a lanthanide donor and a delayed reading to cut background.

Assay [3] concerns the target T1, hERG (Homo sapiens, UniProt Q12809).
T1 construct: host or cells: crude membrane suspension
The assay can be described thus: hERG binding assay ([3H] dofetilide displacement). As to conditions: read-out: HERGdof IC50. A digest of the protocol: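 Displacement of 2.5 nM [3H]dofetilide from crude hERG membranes (ca. 15 μg protein) by filtration binding, 90 min at room temperature, 0.5% DMSO final. Non-specific binding defined with 25 μM terfenadine; compounds run as 9-point duplicate curves from 30 μM to 3 nM.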
Background: Block of hERG is tested as a sign of cardiac risk.

The target of assay [4] is FGFR3 kinase (Homo sapiens, UniProt P22607). Briefly: FGFR3 kinase inhibition assay (LanthaScreen TR-FRET). The assay is classed as biochemical. As to the method:
FGFR3 Kinase Inhibition Assay
as §1, with “FGFR3” for “KDR”, “[…]” for “nL”, “[FGFR3 kinase]=0.20” for “[KDR kinase]=0.38”, “[Mg]=3” for “[Mg]=10”, “[Mn]=3” for “[Ca]=1”

As usually defined, the IC50 is the concentration needed to halve the response being measured.

T1 sequence (Q12809 whole entry): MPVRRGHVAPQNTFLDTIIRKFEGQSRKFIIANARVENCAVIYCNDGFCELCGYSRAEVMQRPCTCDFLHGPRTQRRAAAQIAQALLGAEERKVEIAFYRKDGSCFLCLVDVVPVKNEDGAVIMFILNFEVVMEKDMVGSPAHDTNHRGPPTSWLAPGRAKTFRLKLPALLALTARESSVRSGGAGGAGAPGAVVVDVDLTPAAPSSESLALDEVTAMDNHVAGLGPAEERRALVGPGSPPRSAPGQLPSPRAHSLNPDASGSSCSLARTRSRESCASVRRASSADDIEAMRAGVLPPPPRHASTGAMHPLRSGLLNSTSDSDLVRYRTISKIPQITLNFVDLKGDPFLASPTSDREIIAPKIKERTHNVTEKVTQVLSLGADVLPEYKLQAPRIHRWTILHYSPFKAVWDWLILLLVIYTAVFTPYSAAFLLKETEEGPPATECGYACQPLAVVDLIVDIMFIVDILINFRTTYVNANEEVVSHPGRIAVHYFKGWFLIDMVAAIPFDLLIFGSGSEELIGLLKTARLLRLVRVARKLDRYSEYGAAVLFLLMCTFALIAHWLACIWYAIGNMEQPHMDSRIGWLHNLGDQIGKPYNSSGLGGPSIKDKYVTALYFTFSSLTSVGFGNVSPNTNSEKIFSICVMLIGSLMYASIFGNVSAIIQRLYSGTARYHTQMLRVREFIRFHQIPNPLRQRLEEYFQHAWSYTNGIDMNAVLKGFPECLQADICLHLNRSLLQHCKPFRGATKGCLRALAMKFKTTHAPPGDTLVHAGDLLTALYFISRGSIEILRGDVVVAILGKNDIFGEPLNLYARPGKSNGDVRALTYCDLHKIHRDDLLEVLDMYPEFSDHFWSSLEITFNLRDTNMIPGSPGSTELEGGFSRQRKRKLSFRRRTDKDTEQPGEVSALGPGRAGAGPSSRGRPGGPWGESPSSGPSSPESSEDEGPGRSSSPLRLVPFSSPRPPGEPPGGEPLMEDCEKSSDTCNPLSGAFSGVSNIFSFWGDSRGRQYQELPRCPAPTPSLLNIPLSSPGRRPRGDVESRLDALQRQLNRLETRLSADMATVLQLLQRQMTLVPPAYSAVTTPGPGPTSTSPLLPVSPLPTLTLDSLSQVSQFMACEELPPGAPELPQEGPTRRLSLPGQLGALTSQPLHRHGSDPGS
FGFR3 kinase, sequence (P22607 23-806): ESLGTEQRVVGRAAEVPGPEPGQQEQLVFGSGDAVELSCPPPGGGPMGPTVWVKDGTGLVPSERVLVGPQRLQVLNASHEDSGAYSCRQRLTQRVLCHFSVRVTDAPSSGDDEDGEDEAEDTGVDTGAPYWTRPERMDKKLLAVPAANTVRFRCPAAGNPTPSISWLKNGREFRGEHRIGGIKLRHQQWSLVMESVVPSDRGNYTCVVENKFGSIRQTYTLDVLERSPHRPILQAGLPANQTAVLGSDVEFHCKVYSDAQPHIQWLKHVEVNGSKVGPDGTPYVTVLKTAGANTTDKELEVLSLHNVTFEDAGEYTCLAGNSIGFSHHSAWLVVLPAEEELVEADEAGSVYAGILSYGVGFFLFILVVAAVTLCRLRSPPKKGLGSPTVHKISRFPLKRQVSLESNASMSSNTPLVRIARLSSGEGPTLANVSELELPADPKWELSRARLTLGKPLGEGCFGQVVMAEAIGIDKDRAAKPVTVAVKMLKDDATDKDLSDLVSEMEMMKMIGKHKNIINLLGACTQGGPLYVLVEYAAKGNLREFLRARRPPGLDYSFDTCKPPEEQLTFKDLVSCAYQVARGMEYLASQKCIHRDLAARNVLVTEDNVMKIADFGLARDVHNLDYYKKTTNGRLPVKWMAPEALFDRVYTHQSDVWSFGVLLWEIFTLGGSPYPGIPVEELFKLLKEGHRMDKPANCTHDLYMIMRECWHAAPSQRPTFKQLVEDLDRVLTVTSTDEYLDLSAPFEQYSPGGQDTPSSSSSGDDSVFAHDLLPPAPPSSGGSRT
PIM2, sequence (Q9P1W9 whole entry): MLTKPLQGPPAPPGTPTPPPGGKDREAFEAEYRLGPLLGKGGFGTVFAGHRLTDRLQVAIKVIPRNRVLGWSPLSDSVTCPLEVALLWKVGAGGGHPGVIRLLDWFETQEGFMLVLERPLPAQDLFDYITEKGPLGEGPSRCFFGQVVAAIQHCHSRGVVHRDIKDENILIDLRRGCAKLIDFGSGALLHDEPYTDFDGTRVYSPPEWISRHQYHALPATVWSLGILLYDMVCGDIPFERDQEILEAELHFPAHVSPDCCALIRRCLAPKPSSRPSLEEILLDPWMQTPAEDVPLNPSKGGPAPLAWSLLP
KDR kinase, sequence (P35968 20-1356): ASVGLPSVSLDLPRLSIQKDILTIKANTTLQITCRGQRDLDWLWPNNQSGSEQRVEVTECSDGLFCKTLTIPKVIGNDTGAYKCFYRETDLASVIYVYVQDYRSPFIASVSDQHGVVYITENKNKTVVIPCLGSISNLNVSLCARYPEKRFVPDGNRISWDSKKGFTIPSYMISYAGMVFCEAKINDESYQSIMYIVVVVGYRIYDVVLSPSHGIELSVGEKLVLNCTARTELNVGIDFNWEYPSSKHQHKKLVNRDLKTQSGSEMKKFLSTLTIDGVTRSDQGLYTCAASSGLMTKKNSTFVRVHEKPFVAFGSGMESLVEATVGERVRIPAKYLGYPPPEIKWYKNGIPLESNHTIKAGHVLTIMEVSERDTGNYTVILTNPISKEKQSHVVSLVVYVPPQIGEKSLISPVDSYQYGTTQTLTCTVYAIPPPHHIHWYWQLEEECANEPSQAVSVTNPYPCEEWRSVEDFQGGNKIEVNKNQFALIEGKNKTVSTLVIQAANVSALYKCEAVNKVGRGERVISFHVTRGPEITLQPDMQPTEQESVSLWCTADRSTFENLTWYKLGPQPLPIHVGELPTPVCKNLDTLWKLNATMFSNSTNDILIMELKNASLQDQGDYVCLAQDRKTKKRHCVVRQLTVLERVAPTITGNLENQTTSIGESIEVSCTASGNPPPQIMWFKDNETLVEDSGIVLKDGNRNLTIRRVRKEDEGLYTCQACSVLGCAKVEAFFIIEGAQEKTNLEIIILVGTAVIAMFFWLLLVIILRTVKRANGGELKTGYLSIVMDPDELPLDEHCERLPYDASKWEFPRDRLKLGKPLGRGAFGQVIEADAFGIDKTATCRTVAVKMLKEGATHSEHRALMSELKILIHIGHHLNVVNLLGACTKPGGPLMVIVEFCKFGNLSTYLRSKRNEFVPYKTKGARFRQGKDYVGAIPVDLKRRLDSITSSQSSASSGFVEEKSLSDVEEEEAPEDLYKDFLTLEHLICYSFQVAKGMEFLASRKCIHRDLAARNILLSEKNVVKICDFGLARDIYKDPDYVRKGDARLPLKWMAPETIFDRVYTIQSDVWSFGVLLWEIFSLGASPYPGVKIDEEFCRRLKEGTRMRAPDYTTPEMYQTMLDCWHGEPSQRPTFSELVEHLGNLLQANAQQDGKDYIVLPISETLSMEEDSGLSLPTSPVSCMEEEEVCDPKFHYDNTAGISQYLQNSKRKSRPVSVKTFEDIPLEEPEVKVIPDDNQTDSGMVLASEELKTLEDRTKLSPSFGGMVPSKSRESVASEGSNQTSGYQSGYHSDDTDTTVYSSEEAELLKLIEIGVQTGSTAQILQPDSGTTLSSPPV

As for `C[C@]1(O)[C@@H](N)C[C@H](c2ccncc2NC(=O)c2nc(-c3ccccc3)cnc2N)OC12CC2` [Example 351, 3-amino-N-(4-((5R,7S,8S)-7-amino-8-hydroxy-8-methyl-4-oxaspiro[2.5]octan-5-yl)pyridin-3-yl)-6-phenylpyrazine-2-carboxamide], the IC50 in assay [1] turned out to be 538 nM; in assay [2] (TR-FRET assay) it was 7 nM.

`CC[C@H]1O[C@@H](c2ccncc2NC(=O)c2nc(-c3ccccc3)ncc2N)C[C@@H](O)[C@@H]1O` [Example 39, 5-amino-N-(4-((2R,4R,5S,6R)-6-ethyl-4,5-dihydroxytetrahydro-2H-pyran-2-yl)pyridin-3-yl)-2-phenylpyrimidine-4-carboxamide]: the IC50 was more than 30000 nM in assay [3] (dofetilide displacement) and more than 10000 nM in assay [2].

For the compound `Nc1ncc(-c2ccccc2)nc1C(=O)Nc1cnccc1[C@H]1C[C@@H](N)[C@@]2(O)CCCC[C@H]2O1` [Example 197, 3-amino-N-(4-((2R,4R,4aS,8aR)-4-amino-4a-hydroxyoctahydro-2H-chromen-2-yl)pyridin-3-yl)-6-phenylpyrazine-2-carboxamide], the values for the IC50 in assay [1] and in assay [2] (TR-FRET assay) were 89.2 nM and 40 nM, respectively.

On to `C[C@H]1O[C@@H](c2ccncc2NC(=O)c2nc(-c3ccccc3)ncc2N)C[C@@H](O)[C@]1(C)O` [Example 32, 5-amino-N-(4-((2R,4R,5S,6R)-4,5-dihydroxy-5,6-dimethyltetrahydro-2H-pyran-2-yl)pyridin-3-yl)-2-phenylpyrimidine-4-carboxamide], for which the IC50 is more than 30000 nM in assay [3] (dofetilide displacement) and more than 10000 nM in assay [2].

As for `C[C@@]1(O)[C@@H](N)C[C@@H](c2ccncc2NC(=O)c2nc(-c3ccccc3)cnc2N)OC12CC2` [Example 350, 3-amino-N-(4-((5S,7S,8R)-7-amino-8-hydroxy-8-methyl-4-oxaspiro[2.5]octan-5-yl)pyridin-3-yl)-6-phenylpyrazine-2-carboxamide], the IC50 in assay [1] worked out at 786 nM; in assay [2] (TR-FRET assay), 220 nM.

With `COc1cc(F)c(-c2nc(C(=O)Nc3cnccc3[C@H]3C[C@@H](N)[C@](C)(O)[C@@H](C)O3)ccc2F)c(F)c1` [Example 242, N-(4-((2R,4R,5S,6R)-4-amino-5-hydroxy-5,6-dimethyltetrahydro-2H-pyran-2-yl)pyridin-3-yl)-6-(2,6-difluoro-4-methoxyphenyl)-5-fluoropicolinamide], the IC50 was 6000 nM in assay [3] (hERG binding, dofetilide); more than 10000 nM in assay [4]; 9.9 nM in assay [1].

`N[C@H]1C[C@@H](c2ccncc2NC(=O)c2csc(-c3c(F)cccc3F)n2)O[C@H]2CCC[C@H]21` [Example 230, N-(4-((2S,4S,4aS,7aS)-4-aminooctahydrocyclopenta[b]pyran-2-yl)pyridin-3-yl)-2-(2,6-difluorophenyl)thiazole-4-carboxamide]: the IC50 in assay [3] (hERG binding, dofetilide) is 4000 nM; in assay [4], more than 10000 nM.

Turning to `O=C(Nc1cnccc1[C@H]1C[C@@H](O)[C@@]2(O)CCCC[C@H]2O1)c1c[nH]cc(-c2ccccc2)c1=O` [Example 178, N-(4-((2R,4R,4aS,8aR)-4,4a-dihydroxyoctahydro-2H-chromen-2-yl)pyridin-3-yl)-4-oxo-5-phenyl-1,4-dihydropyridine-3-carboxamide], the IC50 in assay [3] (dofetilide displacement) is more than 30000 nM; in assay [4] it was more than 10000 nM.

In the case of `C[C@]1(O)[C@H](N)C[C@H](c2ccncc2NC(=O)c2nc(-c3ccccc3)cnc2N)OC12CC2` [Example 353, 3-amino-N-(4-((5R,7R,8S)-7-amino-8-hydroxy-8-methyl-4-oxaspiro[2.5]octan-5-yl)pyridin-3-yl)-6-phenylpyrazine-2-carboxamide], the IC50 in assay [1] turned out to be 2430 nM; in assay [2] (TR-FRET assay), 250 nM.

As to `Nc1ncc(-c2ccccc2)nc1C(=O)Nc1cnccc1[C@@H]1C[C@H](N)[C@]2(O)CCCC[C@@H]2O1` [Example 243, 3-amino-N-(4-((2S,4S,4aR,8aS)-4-amino-4a-hydroxyoctahydro-2H-chromen-2-yl)pyridin-3-yl)-6-phenylpyrazine-2-carboxamide], the IC50 in assay [2] (TR-FRET assay) amounted to 8400 nM.

As for `C[C@H]1O[C@@H](c2ccncc2NC(=O)c2ccc(F)c(-c3c(F)cccc3F)n2)C[C@@H](N)[C@]1(C)O` [Example 219, N-(4-((2R,4R,5S,6R)-4-amino-5-hydroxy-5,6-dimethyltetrahydro-2H-pyran-2-yl)pyridin-3-yl)-6-(2,6-difluorophenyl)-5-fluoropicolinamide], the IC50 in assay [3] (hERG binding, dofetilide) was 16000 nM; in assay [4] it was more than 10000 nM; in assay [1], 8.5 nM.

For `Nc1cc(F)c(-c2c(F)cccc2F)nc1C(=O)Nc1cnccc1[C@H]1C[C@@H](N)[C@@]2(O)CCCC[C@H]2O1` [Example 238, 3-amino-N-(4-((2R,4R,4aS,8aR)-4-amino-4a-hydroxyoctahydro-2H-chromen-2-yl)pyridin-3-yl)-6-(2,6-difluorophenyl)-5-fluoropicolinamide], the IC50 in assay [3] (hERG binding, dofetilide) is 4000 nM; in assay [4], more than 10000 nM; in assay [1] it was 1.8 nM.

`Nc1ncc(-c2ccccc2)nc1C(=O)Nc1cnccc1[C@@H]1C[C@H](N)[C@@H]2CCC[C@@H]2O1` [Example 233, 3-amino-N-(4-((2S,4S,4aS,7aS)-4-aminooctahydrocyclopenta[b]pyran-2-yl)pyridin-3-yl)-6-phenylpyrazine-2-carboxamide]: the IC50 in assay [1] was 5140 nM; in assay [2] (TR-FRET assay) it was 3000 nM.

For the compound `Nc1ncc(-c2ccccc2)nc1C(=O)Nc1cnccc1[C@H]1C[C@@H](N)[C@H]2CCC[C@H]2O1` [Example 199, 3-amino-N-(4-((2R,4R,4aR,7aR)-4-aminooctahydrocyclopenta[b]pyran-2-yl)pyridin-3-yl)-6-phenylpyrazine-2-carboxamide], the IC50 is 102 nM in assay [1] and 62 nM in assay [2] (TR-FRET assay).

Consider `CC[C@]1(O)[C@H](O)C[C@H](c2ccncc2NC(=O)c2nc(-c3c(F)cccc3F)ncc2N)O[C@@H]1C` [Example 143, 5-amino-2-(2,6-difluorophenyl)-N-(4-((2R,4R,5S,6R)-5-ethyl-4,5-dihydroxy-6-methyltetrahydro-2H-pyran-2-yl)pyridin-3-yl)pyrimidine-4-carboxamide], for which the results for the IC50 in assay [3] (dofetilide displacement) and in assay [4] were more than 30000 nM and more than 10000 nM, respectively.

With `N[C@@H]1C[C@H](c2ccncc2NC(=O)c2ccc(F)c(-c3c(F)cccc3F)n2)O[C@@H]2CCC[C@H]12` [Example 224, N-(4-((2R,4R,4aR,7aR)-4-aminooctahydrocyclopenta[b]pyran-2-yl)pyridin-3-yl)-6-(2,6-difluorophenyl)-5-fluoropicolinamide], the IC50 was 2000 nM in assay [3] (hERG binding, dofetilide) and more than 10000 nM in assay [4].

In the case of `C[C@@]1(O)[C@H](N)C[C@@H](c2ccncc2NC(=O)c2nc(-c3ccccc3)cnc2N)OC12CC2` [Example 352, 3-amino-N-(4-((5S,7R,8R)-7-amino-8-hydroxy-8-methyl-4-oxaspiro[2.5]octan-5-yl)pyridin-3-yl)-6-phenylpyrazine-2-carboxamide], the IC50 in assay [1] amounted to 1980 nM; in assay [2] (TR-FRET assay) it was 28 nM.
